In the NIST ThermoML archive (doi:10.1016/j.jct.2016.06.016):
Numbers after ± are expanded uncertainties.

Assay: refractive index (Na D-line) (dimensionless); xn = mol fraction of the nth substance listed
Settings: 100 kPa, Liquid, Standard Abbe refractometry

CCOC(=O)CCC(=O)OCC [diethyl butanedioate] + CCCO
refractive index
Settings	x1 = 0.1	x1 = 0.2	x1 = 0.2999	x1 = 0.3998	x1 = 0.4999	x1 = 0.6001	x1 = 0.7001	x1 = 0.8002	x1 = 0.8997	x1 = 1
288.15 K	1.394 ± 0.0014	1.3993 ± 0.0014	1.4037 ± 0.0014	1.4075 ± 0.0014	1.4107 ± 0.0014	1.4135 ± 0.0014	1.416 ± 0.0014	1.4182 ± 0.0014	1.4201 ± 0.0014	1.4217 ± 0.0014
293.15 K	1.3918 ± 0.0014	1.3971 ± 0.0014	1.4016 ± 0.0014	1.4053 ± 0.0014	1.4085 ± 0.0014	1.4113 ± 0.0014	1.4138 ± 0.0014	1.416 ± 0.0014	1.4179 ± 0.0014	1.4195 ± 0.0014
298.15 K	1.3897 ± 0.0014	1.395 ± 0.0014	1.3994 ± 0.0014	1.4031 ± 0.0014	1.4063 ± 0.0014	1.4091 ± 0.0014	1.4116 ± 0.0014	1.4138 ± 0.0014	1.4157 ± 0.0014	1.4173 ± 0.0014
303.15 K	1.3876 ± 0.0014	1.3928 ± 0.0014	1.3972 ± 0.0014	1.4009 ± 0.0014	1.4041 ± 0.0014	1.4069 ± 0.0014	1.4094 ± 0.0014	1.4116 ± 0.0014	1.4135 ± 0.0014	1.4151 ± 0.0014
308.15 K	1.3854 ± 0.0014	1.3906 ± 0.0014	1.3949 ± 0.0014	1.3986 ± 0.0014	1.4018 ± 0.0014	1.4047 ± 0.0014	1.4072 ± 0.0014	1.4094 ± 0.0014	1.4113 ± 0.0014	1.4129 ± 0.0014
313.15 K	1.3831 ± 0.0014	1.3883 ± 0.0014	1.3927 ± 0.0014	1.3964 ± 0.0014	1.3996 ± 0.0014	1.4025 ± 0.0014	1.4049 ± 0.0014	1.4072 ± 0.0014	1.4091 ± 0.0014	1.4108 ± 0.0014
318.15 K	1.3809 ± 0.0014	1.3861 ± 0.0014	1.3905 ± 0.0014	1.3942 ± 0.0014	1.3974 ± 0.0014	1.4002 ± 0.0014	1.4027 ± 0.0014	1.4049 ± 0.0014	1.4069 ± 0.0014	1.4088 ± 0.0014
323.15 K	1.3787 ± 0.0014	1.3839 ± 0.0014	1.3882 ± 0.0014	1.392 ± 0.0014	1.3952 ± 0.0014	1.398 ± 0.0014	1.4005 ± 0.0014	1.4027 ± 0.0014	1.4048 ± 0.0014	1.4067 ± 0.0014

CCOC(=O)CCC(=O)OCC [diethyl butanedioate] + CCCCCCO
refractive index
Settings	x1 = 0.0999	x1 = 0.2	x1 = 0.3001	x1 = 0.4	x1 = 0.4999	x1 = 0.6	x1 = 0.7002	x1 = 0.7999	x1 = 0.9	x1 = 1
288.15 K	1.4192 ± 0.0014	1.419 ± 0.0014	1.4189 ± 0.0014	1.4191 ± 0.0014	1.4193 ± 0.0014	1.4197 ± 0.0014	1.4202 ± 0.0014	1.4207 ± 0.0014	1.4212 ± 0.0014	1.4217 ± 0.0014
293.15 K	1.4172 ± 0.0014	1.4169 ± 0.0014	1.4168 ± 0.0014	1.417 ± 0.0014	1.4172 ± 0.0014	1.4176 ± 0.0014	1.418 ± 0.0014	1.4185 ± 0.0014	1.419 ± 0.0014	1.4195 ± 0.0014
298.15 K	1.4152 ± 0.0014	1.4148 ± 0.0014	1.4147 ± 0.0014	1.4148 ± 0.0014	1.415 ± 0.0014	1.4154 ± 0.0014	1.4158 ± 0.0014	1.4163 ± 0.0014	1.4168 ± 0.0014	1.4173 ± 0.0014
303.15 K	1.4131 ± 0.0014	1.4127 ± 0.0014	1.4126 ± 0.0014	1.4127 ± 0.0014	1.4129 ± 0.0014	1.4133 ± 0.0014	1.4136 ± 0.0014	1.4142 ± 0.0014	1.4147 ± 0.0014	1.4151 ± 0.0014
308.15 K	1.4111 ± 0.0014	1.4107 ± 0.0014	1.4105 ± 0.0014	1.4106 ± 0.0014	1.4108 ± 0.0014	1.4111 ± 0.0014	1.4115 ± 0.0014	1.412 ± 0.0014	1.4125 ± 0.0014	1.4129 ± 0.0014
313.15 K	1.409 ± 0.0014	1.4086 ± 0.0014	1.4084 ± 0.0014	1.4084 ± 0.0014	1.4086 ± 0.0014	1.4089 ± 0.0014	1.4093 ± 0.0014	1.4098 ± 0.0014	1.4103 ± 0.0014	1.4108 ± 0.0014
318.15 K	1.407 ± 0.0014	1.4065 ± 0.0014	1.4063 ± 0.0014	1.4063 ± 0.0014	1.4064 ± 0.0014	1.4068 ± 0.0014	1.4071 ± 0.0014	1.4076 ± 0.0014	1.4082 ± 0.0014	1.4088 ± 0.0014
323.15 K	1.4049 ± 0.0014	1.4044 ± 0.0014	1.4042 ± 0.0014	1.4042 ± 0.0014	1.4043 ± 0.0014	1.4046 ± 0.0014	1.405 ± 0.0014	1.4054 ± 0.0014	1.406 ± 0.0014	1.4067 ± 0.0014
